Results reported in US7902179B2, “Heterocyclic compounds” (Ajinomoto Co., Inc., priority 2001, dated 2011).

These compounds were tested on TNF-α production from mouse peritoneal macrophage (assay: Inhibition of TNF-α production from mouse peritoneal macrophage (LPS stimulation, ELISA)). Details: ICR mouse peritoneal cells, GM-CSF and IFN-γ 10 ng/ml, LPS 5 ng/ml, cultured 16 hrs, 50% suppression of TNF-α amount, read-out: IC50 (μM) Mo-TNF.
Format: cell-based
Experimental: Test for TNF-α Production or Inhibition of TNF-α Production from Mouse Peritoneal Macrophage Peritoneal cells were recovered from the peritoneal cavity of ICR mice (male, 5-7 weeks of age, Charles River) and sown in a 96-well half plate (Costar 3696) at a density of 1×10^5 cells per well. As the medium, RPMI-1640 containing 10% fetal calf serum was used and, using this medium, each reagent was prepared. Mouse GM-CSF (Peprotech) and mouse IFN-γ (Peprotech) were respectively added at a final concentration of 10 ng/ml, lipopolysaccharide (E. coli 0111: B4 LPS, DIFCO, lot 99078) was added at a final concentration of 5 ng/ml, and the compound of the present invention was added at 8 steps of dilution series by 3-fold dilution from the final concentration (300 μM), and cultured for 16 hrs. The concentration of TNF-α secreted into the culture supernatant was determined using a mouse TNF-α ELISA quantitative determination kit (Pharmingen, #2673KI) and the absorbance at 450 nm was measured using a V-max kinetic microplate reader (Molecular Devices). The concentration of the compound necessary for 50% suppression of TNF-α amount produced by lipopolysaccharide stimulation was taken as IC50 (μM).

SMILES	IC50
Cc1ccc(-n2nc3c(c2N)C(=O)NC(=O)C3)cc1 [Example 5]	23.9 µM
Nc1c2c(nn1-c1cccc(F)c1)CC(=O)NC2=O [Example 9]	18 µM
Nc1c2c(nn1-c1ccc([N+](=O)[O-])cc1)CC(=O)NC2=O [Example 10]	22.9 µM
Nc1c2c(nn1-c1cccc(Cl)c1)CC(=O)NC2=O [Example 11]	15.2 µM
Nc1c2c(nn1-c1ccc(Cl)cc1)CC(=O)NC2=O [Example 12]	11.8 µM
Nc1c2c(nn1-c1ccccn1)CC(=O)NC2=O [Example 13]	5 µM
Cc1cccc(-n2nc3c(c2N)C(=O)NC(=O)C3)c1 [Example 14]	27.3 µM
COc1cccc(-n2nc3c(c2N)C(=O)NC(=O)C3)c1 [Example 16]	20.1 µM
Nc1c2c(nn1-c1c(Cl)cccc1Cl)CC(=O)NC2=O [Example 19]	32.8 µM
Nc1c2c(nn1-c1ccccc1)CC(=O)NC2=O [Example 21]	3.5 µM
O=C1Cc2nn(-c3ccccc3)cc2C(=O)N1 [Example 25]	28 µM
O=C1Cc2nn(-c3ccccc3)c(Br)c2C(=O)N1 [Example 26]	15.1 µM
O=C1Cc2nn(-c3ccccc3)c(I)c2C(=O)N1 [Example 27]	28.3 µM
O=C1Cc2nn(-c3ccccc3)c(Sc3ccccc3)c2C(=O)N1 [Example 33]	79.1 µM
COC(=O)CCn1nc2c(c1N)C(=O)NC(=O)C2 [Example 36]	80.5 µM
Nc1c2c(nn1-c1ccccc1)/C(=C\c1ccc(O)cc1)C(=O)NC2=O [Example 46]	23.7 µM
Cc1ccccc1/C=C1/C(=O)NC(=O)c2c1nn(-c1ccccc1)c2N [Example 49]	32.7 µM
CC(C)c1ccc(/C=C2/C(=O)NC(=O)c3c2nn(-c2ccccc2)c3N)cc1 [Example 52]	8.6 µM
CC(=O)Nc1ccc(/C=C2/C(=O)NC(=O)c3c2nn(-c2ccccc2)c3N)cc1 [Example 53]	7.9 µM
Nc1ccc(/C=C2/C(=O)NC(=O)c3c2nn(-c2ccccc2)c3N)cc1 [Example 55]	6.1 µM
Nc1c2c(nn1-c1ccccc1)/C(=C\c1ccc(O)c(O)c1)C(=O)NC2=O [Example 56]	3.3 µM

SMILES	IC50
Nc1c2c(nn1-c1ccccc1)/C(=C\c1cccc(O)c1)C(=O)NC2=O [Example 57]	7.8 µM
Nc1c2c(nn1-c1ccccc1)/C(=C\c1ccc(C(=O)O)cc1)C(=O)NC2=O [Example 60]	3.7 µM
Cn1ccnc1/C=C1/C(=O)NC(=O)c2c1nn(-c1ccccc1)c2N [Example 64]	3.5 µM
Nc1c2c(nn1-c1ccccc1)/C(=C\C1=COc3ccc(O)cc3C1)C(=O)NC2=O [Example 66]	3.5 µM
COc1ccccc1/C=C1/C(=O)NC(=O)c2c1nn(-c1ccccc1)c2N [Example 71]	4.5 µM
COc1cccc(/C=C2/C(=O)NC(=O)c3c2nn(-c2ccccc2)c3N)c1 [Example 72]	80.5 µM
COc1cccc(OC)c1/C=C1/C(=O)NC(=O)c2c1nn(-c1ccccc1)c2N [Example 73]	5.6 µM
COc1cc(OC)c(/C=C2/C(=O)NC(=O)c3c2nn(-c2ccccc2)c3N)c(OC)c1 [Example 74]	4.4 µM
CCC/C=C1/C(=O)NC(=O)c2c1nn(-c1ccccc1)c2N [Example 77]	14.7 µM
CSCC/C=C1/C(=O)NC(=O)c2c1nn(-c1ccccc1)c2N [Example 78]	10.6 µM
Nc1c2c(nn1-c1ccccc1)/C(=C\c1cccs1)C(=O)NC2=O [Example 82]	78.5 µM
Nc1c2c(nn1-c1ccccc1)/C(=C\c1ccco1)C(=O)NC2=O [Example 83]	93.2 µM
C/C=C1/C(=O)NC(=O)c2c1nn(-c1ccccc1)c2N [Example 86]	9.7 µM
CC/C(C)=C1/C(=O)NC(=O)c2c1nn(-c1ccccc1)c2N [Example 88]	9.9 µM
Nc1c2c(nn1-c1ccccc1)C(=C1CCOCC1)C(=O)NC2=O [Example 92]	31.9 µM
Nc1c2c(nn1-c1ccccc1)C1(CC1)C(=O)NC2=O [Example 98]	18.4 µM
Cn1nc2c(c1NCc1cccc(O)c1)C(=O)NC(=O)C2 [Example 112]	82.2 µM
Nc1c2c(nn1-c1ccc(F)cc1)CC(=O)NC2=O [Example 124]	9.4 µM
Nc1c2c(nn1-c1c(F)c(F)c(F)c(F)c1F)CC(=O)NC2=O [Example 125]	10.8 µM
CCOC(=O)Nc1cccc(-n2nc3c(c2N)C(=O)NC(=O)C3)c1 [Example 129]	8.4 µM
Nc1c2c(nn1-c1ccccc1)/C(=C\c1c(F)c(F)c(F)c(F)c1F)C(=O)NC2=O [Example 133]	0.3 µM

SMILES	IC50
CC(C)=C1C(=O)NC(=O)c2c1nn(-c1ccccc1)c2N [Example 135]	8.3 µM
CCOC(=O)/C(C)=C1\C(=O)NC(=O)c2c1nn(-c1ccccc1)c2N [Example 136]	4.3 µM
CO/N=C1/C(=O)NC(=O)c2c1nn(-c1ccccc1)c2N [Example 143]	26.2 µM
CCOC(=O)C(C)C1C(=O)NC(=O)c2c1nn(-c1ccccc1)c2N (centres unmarked) [Example 149]	99.7 µM
Nc1c2c(nn1-c1ccccc1O)CC(=O)NC2=O [Example 153]	9 µM
CCC(CC)n1nc2c(c1N)C(=O)NC(=O)C2 [Example 158]	5.8 µM
Nc1c2c(nn1C1CCOCC1)CC(=O)NC2=O [Example 159]	26.9 µM
Nc1c2c(nn1CC1CCCCC1)CC(=O)NC2=O [Example 160]	60.3 µM
Nc1c2c(nn1C1CCCC1)CC(=O)NC2=O [Example 161]	10.9 µM
CCCC(CCC)n1nc2c(c1N)C(=O)NC(=O)C2 [Example 162]	13 µM
CC1(C)CCC(n2nc3c(c2N)C(=O)NC(=O)C3)CC1 [Example 163]	2.6 µM
CCCCCCn1nc2c(c1N)C(=O)NC(=O)C2 [Example 164]	2.1 µM
CCC(CC)Cn1nc2c(c1N)C(=O)NC(=O)C2 [Example 167]	26.8 µM
Nc1c2c(nn1Cc1ccccc1O)CC(=O)NC2=O [Example 170]	13.2 µM
Nc1c2c(nn1Cc1cccc3ccccc13)CC(=O)NC2=O [Example 172]	83.1 µM
Nc1c2c(nn1Cc1cccnc1)CC(=O)NC2=O [Example 176]	3.5 µM
Nc1c2c(nn1Cc1ccccc1I)CC(=O)NC2=O [Example 180]	8.7 µM
O=C1Cc2nn(-c3ccccc3)c(N3CCCC3)c2C(=O)N1 [Example 186]	14.7 µM
O=C1Cc2nn(-c3ccccc3)c(NC3CCCCC3)c2C(=O)N1 [Example 187]	16.6 µM
O=C1Cc2nn(-c3ccccc3)c(-c3ccncc3)c2C(=O)N1 [Example 190]	77.3 µM
